Patent US10202351B2, “Pyrazolyl derivatives as pest control agents” (BAYER ANIMAL HEALTH GMBH, priority 2015, dated 2019)
One block for each compound: values may come before it.

Assays:
[1] = system: Rhipicephalus sanguineus; assay: Rhipicephalus sanguineus in vitro contact test with adult brown dog ticks; format: in vivo; conditions: application rate 1 μg/cm^2 (100 g/ha), after 48 h, dead or moribund ticks
Description: After the solvent has evaporated off, the tubes are populated with 5-10 adult dog ticks (Rhipicephalus sanguineus), sealed with a perforated plastic lid and incubated in a horizontal position in the dark at room temperature and ambient humidity. After 48 h, efficacy is determined. To this end, the ticks are knocked to the base of the tube and incubated on a hotplate at 45-50° C. for not more than 5 min. Ticks which remain motionless on the base or move in such an uncoordinated manner that they are unable to deliberately avoid the heat by climbing upwards are considered to be dead or moribund.

[2] = system: Lucilia cuprina; assay: Lucilia cuprina test; format: in vivo; conditions: L1 larvae, kill after 2 days
Description: (§1) Solvent: dimethyl sulfoxide
(§2) To produce a suitable preparation of active compound, 10 mg of active compound are mixed with 0.5 ml of dimethyl sulfoxide, and the concentrate is diluted with water to the desired concentration.
About 20 L1 larvae of the Australian sheep blowfly (Lucilia cuprina) are transferred into a test vessel containing minced horsemeat and the active compound formulation of the desired concentration.
After 2 days, the kill in % is determined. 100% means that all the larvae have been killed; 0% means that no larvae have been killed.

[3] = system: Phaedon cochleariae; assay: Phaedon cochleariae spray test; format: in vivo; conditions: larvae on Chinese cabbage leaf discs, after 7 days
Description: (§3) Solvent: 78.0 parts by weight of acetone • • 1.5 parts by weight of dimethylformamide Emulsifier: alkylaryl polyglycol ether […] To produce further test concentrations, the formulation is diluted with emulsifier-containing water. Discs of Chinese cabbage leaves (Brassica pekinensis) are sprayed with an active ingredient formulation of the desired concentration and, after drying, populated with larvae of the mustard beetle (Phaedon cochleariae).

[4] = system: Ctenocephalides felis; assay: Ctenocephalides felis oral test; format: in vivo; conditions: kill after 2 days
From the text: Solvent: dimethyl sulfoxide […] Dilution with citrated cattle blood gives the desired concentration. About 20 unfed adult cat fleas (Ctenocephalides felis) are placed into a chamber which is closed at the top and bottom with gauze. A metal cylinder whose bottom end is closed with parafilm is placed onto the chamber. The cylinder contains the blood/active ingredient formulation, which can be imbibed by the fleas through the parafilm membrane.

[5] = system: Spodoptera frugiperda; assay: Spodoptera frugiperda spray test; format: in vivo; conditions: application rate 100 g/ha, caterpillars on maize leaf discs, after 7 days
Description: as §3, with “Leaf discs” for “Discs”, “maize (Zea mays)” for “Chinese cabbage leaves (Brassica pekinensis)”, “compound” for “ingredient”, “caterpillars” for “larvae”, “armyworm (Spodoptera frugiperda).” for “mustard beetle (Phaedon cochleariae).”

[6] = system: Boophilus microplus; assay: Boophilus microplus injection test; format: in vivo; conditions: after 7 days, laying of fertile eggs
Description: Solvent: dimethyl sulfoxide […] The animals are transferred into dishes and kept in a climate-controlled room. Efficacy is assessed after 7 days by laying of fertile eggs. Eggs which are not visibly fertile are stored in a climate-controlled cabinet until the larvae hatch after about 42 days.

[7] = system: Tetranychus urticae; assay: Tetranychus urticae spray test, OP-resistant; format: in vivo; conditions: all stages on bean leaf discs, after 6 days
Description: Solvent: 78.0 parts by weight of acetone • • 1.5 parts by weight of dimethylformamide Emulsifier: alkylaryl polyglycol ether […] To produce further test concentrations, the formulation is diluted with emulsifier-containing water. Discs of bean leaves (Phaseolus vulgaris) infested with all stages of the greenhouse red spider mite (Tetranychus urticae) are sprayed with an active ingredient formulation of the desired concentration.

[8] = logP determination by HPLC on reversed-phase column (EEC Directive 79/831 Annex V.A8); format: physicochemical; conditions: Table 1; HPLC C18, acetonitrile/water with formic acid
[9] = system: Musca domestica; assay: Musca domestica test; format: in vivo; conditions: adult houseflies, kill after 2 days
Description: as §1, §2
Vessels containing a sponge treated with sugar solution and the active ingredient formulation of the desired concentration are populated with 10 adult houseflies (Musca domestica)).
After 2 days, the kill in % is determined. 100% means that all of the flies have been killed; 0% means that none of the flies have been killed.

[10] = system: Ctenocephalides felis; assay: Ctenocephalides felis in vitro contact test with adult cat fleas; format: in vivo; conditions: application rate 5 μg/cm^2 (500 g/ha), after 48 h, dead or moribund fleas
Description: After the solvent has evaporated off, the tubes are populated with 5-10 adult cat fleas (Ctenocephalides felis), sealed with a perforated plastic lid and incubated in a horizontal position at room temperature and ambient humidity. After 48 h, efficacy is determined. To this end, the tubes are stood upright and the fleas are knocked to the base of the tube. Fleas which remain motionless at the base or move in an uncoordinated manner are considered to be dead or moribund.

[11] = application rate 100 ppm in citrated cattle blood

SMILES: Cc1cc(C(F)(C(F)(F)F)C(F)(F)F)cc(C(F)(F)F)c1-n1cc(-c2cc(NC(=O)c3cocn3)ccc2F)cn1 [Example 2-12]
efficacy [1]: 100%
efficacy ([2]; application rate 100 ppm): 90%
efficacy ([3]; application rate 100 g/ha): 100%
efficacy [4, 11]: 95%
efficacy [5]: 100%
efficacy ([6]; application rate 20 μg/animal): 100%

SMILES: Cc1cc(C(F)(C(F)(F)F)C(F)(F)F)cc(C)c1-n1cc(-c2ccc(F)c(NC(=O)c3ccncc3)c2F)cn1 [Example 9]
efficacy ([7]; application rate 100 g/ha): 100%
efficacy ([9]; application rate 100 ppm): 100%
efficacy ([2]; application rate 100 ppm): 100%
lgP [8]: lgP 3.92
efficacy ([3]; application rate 100 g/ha): 100%
efficacy [4, 11]: 100%
efficacy [5]: 100%
efficacy ([6]; application rate 20 μg/animal): 100%

SMILES: Cc1ncc(-c2cnn(-c3c(Cl)cc(C(F)(C(F)(F)F)C(F)(F)F)cc3Cl)c2)cc1NC(=O)c1ccc(F)cc1 [Example 17]
efficacy ([7]; application rate 100 g/ha): 100%
efficacy ([9]; application rate 20 ppm): 100%
efficacy ([2]; application rate 20 ppm): 100%
efficacy [10]: 100%
efficacy ([3]; application rate 100 g/ha): 100%
efficacy ([4]; application rate 20 ppm in citrated cattle blood): 100%
efficacy [5]: 100%
efficacy ([6]; application rate 4 μg/animal): 100%

SMILES: O=C(Nc1cc(-c2cnn(-c3c(Cl)cc(C(F)(C(F)(F)F)C(F)(F)F)cc3Cl)c2)cnc1F)c1ccncc1 [Example 19]
efficacy ([7]; application rate 100 g/ha): 100%
efficacy ([9]; application rate 100 ppm): 100%
efficacy ([2]; application rate 100 ppm): 100%
efficacy [10]: 100%
efficacy ([3]; application rate 100 g/ha): 100%
efficacy [4, 11]: 100%
efficacy [5]: 100%
efficacy ([6]; application rate 20 μg/animal): 100%

SMILES: Cc1cc(C(F)(C(F)(F)F)C(F)(F)F)cc(C)c1-n1cc(-c2ccc(N(C)C)c(NC(=O)c3ccncc3)c2)cn1 [Example 20]
efficacy ([7]; application rate 100 g/ha): 100%
efficacy ([9]; application rate 100 ppm): 90%
efficacy [10]: 100%
efficacy ([3]; application rate 100 g/ha): 100%
efficacy [4, 11]: 100%
efficacy [5]: 100%
efficacy ([6]; application rate 20 μg/animal): 100%

SMILES: Cc1cc(C(F)(C(F)(F)F)C(F)(F)F)cc(C(F)(F)F)c1-n1cc(-c2ccc(F)c(NC(=O)c3ccc(F)cc3)c2F)cn1 [Example 23]
efficacy ([9]; application rate 100 ppm): 80%
efficacy [1]: 100%
efficacy ([2]; application rate 100 ppm): 100%
efficacy ([3]; application rate 100 g/ha): 100%
efficacy [4, 11]: 100%
efficacy [5]: 100%
efficacy ([6]; application rate 20 μg/animal): 100%

Further lines, with some results ahead:

lgP [8]: lgP 3.2
SMILES: O=C(Nc1cccc(-c2cnn(-c3c(Cl)cc(C(F)(F)F)cc3Cl)c2)c1)c1ccncc1 [Example 3]
efficacy ([7]; application rate 500 g/ha): 90%
efficacy ([3]; application rate 500 g/ha): 100%
efficacy [4, 11]: 90%
efficacy ([6]; application rate 20 μg/animal): 100%

lgP [8]: lgP 4.69
SMILES: Cc1cc(C(F)(C(F)(F)F)C(F)(F)F)cc(C)c1-n1cc(-c2cnc(Cl)c(NC(=O)C3(C#N)CC3)c2)cn1 [Example 13]
efficacy ([9]; application rate 100 ppm): 80%
efficacy ([2]; application rate 100 ppm): 90%
efficacy [4, 11]: 100%
efficacy [5]: 83%
efficacy ([6]; application rate 20 μg/animal): 100%

lgP [8]: lgP 4.69
SMILES: Cc1cc(C(F)(C(F)(F)F)C(F)(F)F)cc(C)c1-n1cc(-c2ccnc(NC(=O)c3ccc(F)cc3)c2)cn1 [Example 14]
efficacy ([6]; application rate 20 μg/animal): 80%

lgP [8]: lgP 3.95
SMILES: Cc1cc(C(F)(C(F)(F)F)C(F)(F)F)cc(C)c1-n1cc(-c2ccc(F)c(NC(=O)c3cncnc3)c2)cn1 [Example 15]
efficacy ([9]; application rate 100 ppm): 100%
efficacy ([2]; application rate 100 ppm): 100%
efficacy [10]: 100%
efficacy ([3]; application rate 100 g/ha): 100%
efficacy [4, 11]: 100%
efficacy [5]: 100%
efficacy ([6]; application rate 20 μg/animal): 100%
